Experimental data: patent US8524738B2, “Quinolinones and quinoxalinones as antibacterial composition” (Toyama Chemical Co., Ltd., priority 2005, dated 2013)
In brackets after ≈: the same amount, converted by molar mass. Structures can show the parent of a compound that is named as a salt. Where two headings read alike, the source gives them in different places.

Key:
[1] = tested on: Methicillin-resistant Staphylococcus aureus (S. aureus F-3095); assay: Sensitivity Test 2: antibacterial activity (MIC) by micro-dilution method; type: cell-based
Method: (§1) Test compounds were initially dissolved in dimethylsulfoxide. Antibacterial activities (MICs) of the same compounds were determined by the micro-dilution method as recommended by the Japanese Society of Chemotherapy.
(§2) Staphylococcus aureus (S. aureus FDA209P) was used as the test organism. The bacterial cells were grown overnight at 35° C. on Mueller-Hinton agar (MHA) plates. The bacterial cells were then suspended in sterile saline and adjusted to the turbidity of a 0.5 McFarland standard. The inoculum was prepared by 10-fold dilution of this suspension. Approximately 0.005 mL aliquots of the inoculum prepared above were subsequently inoculated into Cation-adjusted Mueller-Hinton broth (CAMHB, 100 μL/well) including the test compounds for overnight incubation at 35° C.
Methicillin-resistant Staphylococcus aureus (S. aureus F-3095) was used as the test organism. Antibacterial activities (MICs) were determined in the same manner as in Test Example 1.

[2] = tested on: Staphylococcus aureus (S. aureus FDA209P); assay: Sensitivity Test 1: antibacterial activity (MIC) by micro-dilution method; type: cell-based
Method: as §1, §2

S. aureus Smith = assay: Infection Test: mice infected intraperitoneally with S. aureus Smith; type: in vivo; conditions: ICR mice, 5 per group; S. aureus Smith i.p.; 10 mg/kg subcutaneously once at 1 hour after infection; survivors recorded 3 days after infection
Method: S. aureus Smith which was grown overnight at 37° C. on Mueller-Hinton agar (MHA) plates were suspended to give a final concentration of 10^9 CFU/mL. The inoculum was prepared by diluting this suspension 10-fold in 1/15 mol/L phosphate buffer (pH 7) containing 5.6% mucin. ICR mice (4 to 4.5 weeks of age, male, 5 mice per group) were intraperitoneally administered with the inoculum (approximately 2×10^7 CFU per mice) to induce infection.
After dissolving the test compounds in 0.1 mol/L hydrochloric acid, 20% 2-hydroxypropyl-β-cyclodextrin (HP-β-CD) or a mixture of 20% HP-β-CD and 0.1 mol/L hydrochloric acid at a proportion of 1:1 was added to give a final concentration of 1 mg/mL. Each of the test compound solutions (10 mg/kg) was subcutaneously administered once to a group of mice at 1 hour after infection. The control group was administered with 10% HP-β-CD. The mice were observed daily and the number of surviving mice in each group was recorded 3 days after infection.

[3] = S. aureus FDA209P, CAMHB, overnight incubation at 35° C., lowest concentration with virtually no growth, read-out: MIC
[4] = Methicillin-resistant S. aureus F-3095, same manner as in Test Example 1, read-out: MIC

COc1ccc2c(C)cc(=O)n(CCN3CCC(NCc4ccc5c(c4)OCCO5)CC3)c2c1 [Example 2, 1-(2-(4-((2,3-dihydro-1,4-benzodioxin-6-ylmethyl)amino)piperidin-1-yl)ethyl)-7-methoxy-4-methylquinolin-2(1H)-one]
MIC [1]: 0.0313 µg/mL (≈ 0.0675 µM) | MIC [2, 3]: 0.0313 µg/mL (≈ 0.0675 µM) | Number of surviving mice (S. aureus Smith): 4

COc1ccc2ccc(=O)n(CCN3CCC(NCc4cc5c(cn4)OCCO5)CC3)c2c1 [Example 64, 1-(2-(4-((2,3-dihydro(1,4)dioxino(2,3-c)pyridin-7-ylmethyl)amino)piperidin-1-yl)ethyl)-7-methoxyquinolin-2(1H)-one]
MIC [1, 4]: 0.0156 µg/mL (≈ 0.0346 µM) | MIC [2, 3]: 0.0156 µg/mL (≈ 0.0346 µM)

COc1ccc2ncc(=O)n(CCN3CCC(NCc4ccc5c(c4)NC(=O)CS5)CC3)c2c1 [Example 91, 6-(((1-(2-(7-methoxy-2-oxoquinoxaline-1-(2H)-yl)ethyl)piperidin-4-yl)amino)methyl)-2H-1,4-benzothiazine-3(4H)-one]
MIC [1, 4]: 0.0313 µg/mL (≈ 0.0653 µM) | MIC [2, 3]: 0.0313 µg/mL (≈ 0.0653 µM) | Number of surviving mice (S. aureus Smith): 5

COc1ccc2ncc(=O)n(CCN3CCC(NCc4ccc5c(c4)OCCO5)CC3)c2c1 [Example 117, 1-(2-(4-((2,3-dihydro-1,4-benzodioxin-6-ylmethyl)amino)piperidin-1-yl)ethyl)-7-methoxyquinoxalin-2(1H)-one hydrochloride]
MIC [1]: 0.0313 µg/mL | MIC ([2]; FDA209P): 0.0313 µg/mL | Number of surviving mice (S. aureus Smith): 5

COc1ccc2ncc(=O)n(CCN3CCC(NCc4ccc5c(n4)NC(=O)CS5)CC3)c2c1 [Example 179, 6-(((1-(2-(7-methoxy-2-oxoquinoxalin-1(2H)-yl)ethyl)piperidin-4-yl)amino)methyl)-2H-pyrido(3,2-b)(1,4)thiazin-3(4H)-one]
MIC [1, 4]: 0.0313 µg/mL (≈ 0.0651 µM) | MIC [2, 3]: 0.0156 µg/mL (≈ 0.0325 µM) | Number of surviving mice (S. aureus Smith): 5

CNC(=O)c1cc(OC)cc2c1ccc(=O)n2CCN1CCC(NCc2ccc3c(c2)OCCO3)CC1 [Example 186, 1-(2-(4-((2,3-dihydro-1,4-benzodioxin-6-ylmethyl)amino)piperidin-1-yl)ethyl)-7-methoxy-N-methyl-2-oxo-1,2-dihydroquinoline-5-carboxamide hydrochloride]
MIC ([2]; FDA209P): 0.25 µg/mL

COc1cc(CO)c2ccc(=O)n(CCN3CCC(NCc4ccc5c(c4)OCCO5)CC3)c2c1 [Example 189, 1-(2-(4-((2,3-dihydro-1,4-benzodioxin-6-ylmethyl)amino)piperidin-1-yl)ethyl)-5-hydroxymethyl-7-methoxyquinolin-2(1H)-one hydrochloride]
MIC ([2]; FDA209P): 0.0625 µg/mL

COc1cccc2ccc(=O)n(CCN3CCC(NCc4ccc5c(c4)OCCO5)CC3)c12 [Example 244, 1-(2-(4-((2,3-dihydro-1,4-benzodioxin-6-ylmethyl)amino)piperidin-1-yl)ethyl)-8-methoxyquinolin-2(1H)-one hydrochloride]
MIC ([2]; FDA209P): 0.0625 µg/mL

CCc1ccc(CNC2CCN(CCn3c(=O)cc(C(=O)NC)c4ccc(OC)cc43)CC2)cc1 [Example 339, 1-(2-(4-(4-ethylbenzylamino)piperidin-1-yl)ethyl)-7-methoxy-N-methyl-2-oxo-1,2-dihydroquinoline-4-carboxamide hydrochloride]
MIC ([2]; FDA209P): 0.0625 µg/mL

CNC(=O)c1cc(=O)n(CCN2CCC(NCc3cc4sccc4s3)CC2)c2cc(OC)ccc12 [Example 342, 7-methoxy-N-methyl-2-oxo-1-(2-(4-((thieno[3,2-b]thiophen-2-yl)methylamino)piperidin-1-yl)ethyl)-1,2-dihydroquinoline-4-carboxamide hydrochloride]
MIC ([2]; FDA209P): 0.0313 µg/mL

CNC(=O)c1cc(=O)n(CCN2CCC(NCc3cc4ccccc4s3)CC2)c2cc(OC)ccc12 [Example 343, 1-(2-(4-((benzo[b]thiophen-2-yl)methylamino)piperidin-1-yl)ethyl)-7-methoxy-N-methyl-2-oxo-1,2-dihydroquinoline-4-carboxamide hydrochloride]
MIC ([2]; FDA209P): 0.125 µg/mL

CNC(=O)c1cc(=O)n(CCN2CCC(NCC#Cc3ccccc3)CC2)c2cc(OC)ccc12 [Example 344, 7-methoxy-N-methyl-2-oxo-1-(2-(4-(3-phenyl-2-propyn-1-ylamino)piperidin-1-yl)ethyl)-1,2-dihydroquinoline-4-carboxamide hydrochloride]
MIC ([2]; FDA209P): 0.125 µg/mL

O=c1cnc2ccc(F)cc2n1CCN1CCC(NCc2ccc3c(c2)OCCO3)CC1 [Example 346, (1-(2-(4-((2,3-dihydro-1,4-benzodioxin-6-ylmethyl)amino)piperidin-1-yl)ethyl)-7-fluoroquinoxalin-2(1H)-one hydrochloride]
MIC [2, 3]: 0.0156 µg/mL

CCc1ccc(CNC2CCN(CCn3c(=O)cnc4ccc(F)cc43)CC2)cc1 [Example 347, 1-(2-(4-(4-ethylbenzylamino)piperidin-1-yl)ethyl)-7-fluoroquinoxalin-2(1H)-one hydrochloride]
MIC ([2]; FDA209P): 0.0156 µg/mL

O=c1cnc2ccc(F)cc2n1CCN1CCC(NCc2cc3ccccc3s2)CC1 [Example 349, 1-(2-(4-((benzo[b]thiophen-2-yl)methylamino)piperidin-1-yl)ethyl)-7-fluoroquinoxalin-2(1H)-one hydrochloride]
MIC ([2]; FDA209P): 0.0156 µg/mL

O=c1cnc2ccc(F)cc2n1CCN1CCC(NCc2cc(-c3cccs3)on2)CC1 [Example 351, 7-fluoro-1-(2-(4-((5-(thiophen-2-yl)isoxazol-3-yl)methylamino)piperidin-1-yl)ethyl)quinoxalin-2(1H)-one hydrochloride]
MIC ([2]; FDA209P): 0.0078 µg/mL

CCc1ccc(CNC2CCN(CCn3c(=O)cnc4ccc(OC)cc43)CC2)cc1 [Example 353, 1-(2-(4-(4-ethylbenzylamino)piperidin-1-yl)ethyl)-7-methoxyquinoxalin-2(1H)-one hydrochloride]
MIC ([2]; FDA209P): 0.0156 µg/mL

COc1ccc2ncc(=O)n(CCN3CCC(NCc4ccc(C)c(F)c4)CC3)c2c1 [Example 354, 1-(2-(4-(3-fluoro-4-methylbenzylamino)piperidin-1-yl)ethyl)-7-methoxyquinoxalin-2(1H)-one hydrochloride]
MIC ([2]; FDA209P): 0.0078 µg/mL

COc1ccc2ncc(=O)n(CCN3CCC(NCc4nc5c(cc4Cl)SCC(=O)N5)CC3)c2c1 [Example 355, 1-(2-(4-((7-chloro-3-oxo-3,4-dihydro-2H-pyrido[3,2-b][1,4]thiazin-6-yl)methylamino)piperidin-1-yl)ethyl)-7-methoxyquinoxalin-2(1H)-one hydrochloride]
MIC ([2]; FDA209P): 0.0156 µg/mL

COc1ccc2ncc(=O)n(CCN3CCC(NCc4ccc5ccccc5c4)CC3)c2c1 [Example 356, 7-methoxy-1-(2-(4-((naphthalen-2-yl)methylamino)piperidin-1-yl)ethyl)quinoxalin-2(1H)-one hydrochloride]
MIC ([2]; FDA209P): 0.0156 µg/mL

COc1ccc2ncc(=O)n(CCN3CCC(NCc4cc5ccccc5s4)CC3)c2c1 [Example 357, 1-(2-(4-((benzo[b]thiophen-2-yl)methylamino)piperidin-1-yl)ethyl)-7-methoxyquinoxalin-2(1H)-one hydrochloride]
MIC ([2]; FDA209P): 0.0156 µg/mL

COc1ccc2ncc(=O)n(CCN3CCC(NCc4cc5sccc5s4)CC3)c2c1 [Example 360, 1-(2-(4-(((thieno[3,2-b]thiophen-2-yl)methylamino)piperidin-1-yl)ethyl)-7-methoxyquinoxalin-2(1H)-one hydrochloride]
MIC [2, 3]: 0.0078 µg/mL

O=c1cnc2ccc(Br)cc2n1CCN1CCC(NCc2ccc3c(c2)OCCO3)CC1 [Example 363, 1-(2-(4-((2,3-dihydro-1,4-benzodioxin-6-ylmethyl)amino)piperidin-1-yl)ethyl)-7-bromoquinoxalin-2(1H)-one hydrochloride]
MIC ([2]; FDA209P): 0.0313 µg/mL

O=C1CSc2cc(Cl)c(CNC3CCN(CCn4c(=O)cnc5ccc(F)cc54)CC3)nc2N1 [Example 368, 1-(2-(4-((7-chloro-3-oxo-3,4-dihydro-2H-pyrido[3,2-b][1,4]thiazin-6-yl)methylamino)piperidin-1-yl)ethyl)-7-fluoroquinoxalin-2(1H)-one hydrochloride]
MIC ([2]; FDA209P): 0.0156 µg/mL

COc1ccc2ncc(=O)n(CCN3CCC(NCc4ccc5c(c4)SCCS5)CC3)c2c1 [Example 370, 1-(2-(4-((2,3-dihydro-1,4-benzodithiin-6-ylmethyl)amino)piperidin-1-yl)ethyl)-7-methoxyquinoxalin-2(1H)-one hydrochloride]
MIC ([2]; FDA209P): 0.0039 µg/mL

COc1ccc2ncc(=O)n(CCN3CCC(NCc4cc5c(cn4)OCCCO5)CC3)c2c1 [Example 375, hydrochloride]
MIC ([2]; FDA209P): 0.0156 µg/mL

COc1ccc2ncc(=O)n(CCN3CCC(NCc4ccc5c(n4)NC(=O)CO5)CC3)c2c1 [Example 400, 7-methoxy-1-(2-(4-((3-oxo-3,4-dihydro-2H-pyrido[3,2-b][1,4]oxazin-6-yl)methylamino)piperidin-1-yl)ethyl)quinoxalin-2(1H)-one hydrochloride]
MIC ([2]; FDA209P): 0.0156 µg/mL
